Data reported in article PMC9144902, “Metal(II) Complexes of the Fluoroquinolone Fleroxacin: Synthesis, Characterization and Biological Profile” (Pharmaceutics, 2022).

What was measured:
[1] = molecular target: T1, bovine serum albumin (BSA) (Bos taurus, UniProt P02769); experiment: Albumin binding by tryptophan fluorescence emission quenching; conditions: for K(BSA), BSA-binding constant / kq(BSA), BSA-quenching constant: BSA 3 μM; for K(BSA), BSA-binding constant: buffer pH 7.0, Scatchard equation; for kq(BSA), BSA-quenching constant: buffer pH 7.0, λexc 295 nm, Stern–Volmer, τ0 = 10^–8 s; for BSA fluorescence, % of the initial fluorescence intensity (I/Io): λem,max = 342 nm, final value of titration (Figure S11)
T1 construct: purchased
Procedure: (§1) Serum albumins (Sas) are the most abundant serum proteins and play a role in the circulatory system, primarily in the transport of drugs and other bioactive small molecules through the bloodstream.
(§2) The SA-quenching constants (kq) for the compounds (Table 5) were calculated with the Stern–Volmer quenching equation (Equations (S2) and (S3)).
(§3) Albumin-binding constants (K) were calculated using the Scatchard equation (Equation (S4)). […]
(§4) S2. Interaction with serum albumins
(§5) The albumin–binding study for the compounds was carried out b y fluorescence emission

[2] = molecular target: T2, human serum albumin (HSA) (Homo sapiens, UniProt P02768); experiment: as above; conditions: for K(HSA), HSA-binding constant / kq(HSA), HSA-quenching constant: HSA 3 μM; for K(HSA), HSA-binding constant: buffer pH 7.0, Scatchard equation; for kq(HSA), HSA-quenching constant: buffer pH 7.0, λexc 295 nm, Stern–Volmer, τ0 = 10^–8 s; for HSA fluorescence, % of the initial fluorescence intensity (I/Io): λem,max = 351 nm, final value of titration (Figure S10)
T2 construct: purchased
Procedure: as §1, §2, §3, §4, §5

[3] = system: CT DNA; experiment: Study of the DNA-interaction by cyclic voltammetry; assay type: binding, calf; conditions: for Epa(f), anodic potential / Epc(f), cathodic potential / Epa(b), anodic potential / Epc(b), cathodic potential: M(II)/M(I), 1:2 DMSO/buffer; for Epa(f), anodic potential / Epc(f), cathodic potential: absence of CT DNA; for Epa(b), anodic potential / Epc(b), cathodic potential: presence of CT DNA; for Kr/Kox, ratio of equilibrium DNA-binding constants (reduced/oxidized form): eq. S6
Procedure: Cyclic voltammetry was used to study the interaction of the complexes with CT DNA. An intercalative interaction will induce a positive shift for the electrochemical potential(s) of metal oxidation/reduction, whereas, in the case of electrostatic interaction, a negative shift in the potential(s) may occur. The cyclic voltammograms of the complexes in a 1:2 DMSO:buffer solution (0.33 mM) were recorded in the absence and presence of the CT DNA solution (Figure S13). The predominant electrochemical feature for all complexes is a positive shift in the potential in the presence of CT DNA (ΔEpc/a = (–30)–(+127) mV). Consequently, the intercalative nature of the interaction of the complexes with DNA can be inferred from the presented data.
In order to evaluate further the redox behavior of the complexes, the corresponding equilibrium constants were calculated by determining the ratio Kr/Kox in accordance to Equation (S6), where Kox and Kr are the DNA-binding constants for the oxidized and reduced form, respectively, of the metal ions. For all complexes, the Kr/Kox ratio is close to or above 1 (Table 7), showing the selective binding of DNA to the […] form of the complexes. […]
S3.3 Study of the DNA –interaction by cyclic vol ta mmetry
Cyclic voltammetr y can be also used in order to calculate the corresponding equilibrium constant for the redox process. The ratio of the DNA–binding constants for the reduced (K r) and oxidized forms (Kox) of t he complex es (Kr/Kox) w as calculat ed according t o eq. S6:
Δ = = 0.059 × lo gEE E K oxoo o (eq. S6) […]
where Eo and Eo are the formal potentials of M(II)/M(I) redox couple in the fully bound and […]
free complexes, respectivel y. Kox and Kr are the binding constants for the binding of the oxidized and reduced species to DNA, respectivel y [S8] . […]

[4] = system: EB–DNA adduct (CT DNA); experiment: Competitive study with EB (EB–DNA fluorescence quenching); assay type: binding, calf; conditions: for Ksv, Stern–Volmer constant: EB–DNA adduct; for ΔI/Io, percentage of EB–DNA fluorescence quenching: [EB] = 20 μM, [DNA] = 26 μM, λexc 540 nm, λem 592 nm; for EB–DNA relative fluorescence emission intensity, % of the initial (I/Io): λemission = 592 nm, final value (up to), Figure S14; for kq, EB–DNA quenching constant: τo = 23 ns
Procedure: Ethidium bromide is a typical marker of intercalation because it can intercalate between adjacent DNA bases with its planar phenanthridine ring.
The fluorescence emission spectra of the EB–DNA adduct ([EB] = 20 μM, [DNA] = 26 μM) in the absence and presence of the compounds were recorded at increasing amounts of the respective compounds. […] As a conclusion, an intercalative interaction of the complexes with CT DNA can be proposed.
The values of the Stern–Volmer constants (Ksv) for the compounds were calculated using the linear Stern–Volmer equation (Equation (S2)) and were of the order of 10^5 M^−1 (Table 8), indicating tight binding of the complexes with DNA [61]. The Ksv values for the complexes are in the range found for a number of metal(II)–quinolone complexes, and complex 12 presents the highest Ksv value (Ksv = 7.25(±0.30) × 10^5 M^−1) among the compounds studied. In addition, the EB–DNA quenching constants (kq) for the compounds were calculated with Equation (S3), assuming τo = 23 ns as the fluorescence lifetime. The values of kq (Table 8) are much higher than the value of 10^10 M^−1s^−1, indicating a static mechanism of EB–DNA fluorescence quenching induced by the compounds, which can result from the formation of a new adduct apparently consisting of each complex and DNA [61].
In order to determine and confirm the DNA–binding mode of the compounds, a competitive study with EB as an intercalating marker is performed b y fluorescence emission spectroscopy.
Therefo re, the E B–displacing abilit y of the compounds from its EB –DN A conjugate was ex amined.
The DNA–EB adduct was prepared b y addition of 20 μM EB and 26 μM CT DNA in buffer solution (150 mM NaCl and 15 mM trisodium citrate at pH 7.0). The potential intercalation of the compounds between the DNA–bases was studied by the addition of a certain amount of the compound solution into the EB–DNA adduct solution. The influence of the compounds on the EB – DNA solution was monitored through the changes of the fluorescence emission spectra at excitation […]
wavelen gth (λex ) at 540 nm [S3]. […]
room temperature in solution or in the presence of DNA, under the same experimental conditions (λex = 540 nm). Bearing t hat in mind, the observed quenching of the EB–DNA solution is evidentl y associated to the displacement of EB from its EB–DNA adduct.
The quenching effici ency (KSV) for each compound was assessed according to the Stern – Volmer equation: Io =1+ k τ [Q] = 1+ K [Q], (eq. S2) [S3] where I0 and I = the fluorescence […]
emission intensities of EB–DNA in the absence and presence of the quencher, respectivel y, [Q] = the concentration of the quencher (i.e. compounds). KSV is obtained from t he Stern–Volmer plots b y the slope of the diagram I0/ I versus [Q]. Taking τ0 = 23 ns as the fluorescence lifetime of the EB– DNA s ystem [S5], the EB –DNA quenching constants (k q) of the compounds can be determined accordin g to eq.S3: K SV = kqτo . […]
[S2] Irgi, E.P.; Geromichalos, G.D.; Balala, S.; Kljun, J.; Kalogiannis, S.; Papadopoulos, A.; Turel, I.; Psomas, G. Cobalt(II) complexes with quinolone antimicrobial drug oxolinic acid: […]
[ S 5] Heller, D.P.; Greenstock, C.L. Fluorescence lifetime analysis of DNA intercalated ethidium bromide and quenching by free d ye. Biophys. Chem . 1994, 50, 305–312.

T2 sequence (P02768 25-609): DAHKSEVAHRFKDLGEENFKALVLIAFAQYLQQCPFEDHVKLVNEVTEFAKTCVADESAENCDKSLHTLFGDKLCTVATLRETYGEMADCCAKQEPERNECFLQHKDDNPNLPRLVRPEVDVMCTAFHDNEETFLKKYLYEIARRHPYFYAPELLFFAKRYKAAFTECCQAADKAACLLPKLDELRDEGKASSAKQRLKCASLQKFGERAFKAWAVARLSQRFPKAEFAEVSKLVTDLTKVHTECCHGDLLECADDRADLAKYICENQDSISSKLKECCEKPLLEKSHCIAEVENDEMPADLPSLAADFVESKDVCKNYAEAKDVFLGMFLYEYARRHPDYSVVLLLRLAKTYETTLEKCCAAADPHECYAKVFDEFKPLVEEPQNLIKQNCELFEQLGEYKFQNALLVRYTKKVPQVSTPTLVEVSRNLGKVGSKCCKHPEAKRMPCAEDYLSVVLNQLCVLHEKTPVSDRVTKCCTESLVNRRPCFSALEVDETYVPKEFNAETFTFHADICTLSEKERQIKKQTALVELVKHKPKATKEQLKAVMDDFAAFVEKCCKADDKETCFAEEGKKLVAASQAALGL
T1 sequence (P02769 25-607): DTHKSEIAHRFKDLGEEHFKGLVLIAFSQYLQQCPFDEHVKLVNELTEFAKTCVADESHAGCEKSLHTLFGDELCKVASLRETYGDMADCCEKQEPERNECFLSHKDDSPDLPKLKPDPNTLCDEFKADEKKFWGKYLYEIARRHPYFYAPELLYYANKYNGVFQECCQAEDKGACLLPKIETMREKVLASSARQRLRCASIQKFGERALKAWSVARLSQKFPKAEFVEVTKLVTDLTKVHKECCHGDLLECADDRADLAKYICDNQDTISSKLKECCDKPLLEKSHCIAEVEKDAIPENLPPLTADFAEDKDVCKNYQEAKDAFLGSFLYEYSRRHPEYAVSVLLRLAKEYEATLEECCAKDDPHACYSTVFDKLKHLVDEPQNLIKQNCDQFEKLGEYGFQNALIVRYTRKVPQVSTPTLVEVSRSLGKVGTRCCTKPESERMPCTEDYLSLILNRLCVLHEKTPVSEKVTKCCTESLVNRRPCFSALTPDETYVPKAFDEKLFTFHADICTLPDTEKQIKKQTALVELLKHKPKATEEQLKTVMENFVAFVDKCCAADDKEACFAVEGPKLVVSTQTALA

| Structure (SMILES) | K(BSA), BSA-binding constant [1] | kq(BSA), BSA-quenching constant [1] | BSA fluorescence, % of the initial fluorescence intensity (I/Io) [1] [%] | K(HSA), HSA-binding constant [2] | kq(HSA), HSA-quenching constant [2] | HSA fluorescence, % of the initial fluorescence intensity (I/Io) [2] [%] | Epa(f), anodic potential [3] [mV] | Epc(f), cathodic potential [3] [mV] | Epa(b), anodic potential [3] [mV] | Epc(b), cathodic potential [3] [mV] | Kr/Kox, ratio of equilibrium DNA-binding constants (reduced/oxidized form) [3] | Ksv, Stern–Volmer constant [4] | ΔI/Io, percentage of EB–DNA fluorescence quenching [4] [%] | EB–DNA relative fluorescence emission intensity, % of the initial (I/Io) [4] [%] | kq, EB–DNA quenching constant [4] |
| --- | --- | --- | --- | --- | --- | --- | --- | --- | --- | --- | --- | --- | --- | --- | --- |
| CN1CCN(c2c(F)cc3c(=O)c(C(=O)[O-])cn(CCF)c3c2F)CC1.CN1CCN(c2c(F)cc3c(=O)c(C(=O)[O-])cn(CCF)c3c2F)CC1.[Cu+2] [complex 1, [Cu(flrx)2]] | 7.19(±0.21) × 10^4 M^−1 | 1.87(±0.09) × 10^13 M^−1s^−1 | 17.3 | 8.39(±0.27) × 10^4 M^−1 | 1.09(±0.08) × 10^13 M^−1s^−1 | 33.3 | −504 | −725 | −462 | −735 | 1.31 | 2.18(±0.06) × 10^5 M^–1 | 62.2 | 37.8 | 9.47(±0.03) × 10^12 M^−1s^−1 |
| CN1CCN(c2c(F)cc3c(=O)c(C(=O)[O-])cn(CCF)c3c2F)CC1.CN1CCN(c2c(F)cc3c(=O)c(C(=O)[O-])cn(CCF)c3c2F)CC1.O.O.[Mn+2] [complex 2, [Mn(flrx)2(H2O)2]] | 1.45(±0.04) × 10^5 M^−1 | 3.45(±0.16) × 10^13 M^−1s^−1 | 11.1 | 9.58(±0.39) × 10^4 M^−1 | 1.42(±0.04) × 10^13 M^−1s^−1 | 28.5 | −455 | −684 | −466 | −678 | 0.96 | 6.07(±0.23) × 10^5 M^–1 | 74.4 | 15.6 | 2.64(±0.10) × 10^13 M^−1s^−1 |
| CN1CCN(c2c(F)cc3c(=O)c(C(=O)[O-])cn(CCF)c3c2F)CC1.CN1CCN(c2c(F)cc3c(=O)c(C(=O)[O-])cn(CCF)c3c2F)CC1.CO.CO.[Co+2] [complex 4, [Co(flrx)2(MeOH)2]] | 1.02(±0.05) × 10^5 M^−1 | 1.34(±0.03) × 10^13 M^−1s^−1 | 26.3 | 7.68(±0.33) × 10^4 M^−1 | 6.05(±0.13) × 10^12 M^−1s^−1 | 44.3 | −483 | −724 | −455 | −735 | 1.15 | 1.36(±0.03) × 10^5 M^–1 | 64.1 | 35.9 | 5.93(±0.14) × 10^12 M^−1s^−1 |
| CN1CCN(c2c(F)cc3c(=O)c(C(=O)[O-])cn(CCF)c3c2F)CC1.CN1CCN(c2c(F)cc3c(=O)c(C(=O)[O-])cn(CCF)c3c2F)CC1.CO.CO.[Ni+2] [complex 5, [Ni(flrx)2(MeOH)2]] | 1.75(±0.07) × 10^5 M^−1 | 2.37(±0.13) × 10^13 M^−1s^−1 | 19.2 | 5.76(±0.28) × 10^4 M^−1 | 1.09(±0.03) × 10^13 M^−1s^−1 | 34.1 | −495 | −706 | −501 | −701 | 0.99 | 2.33(±0.08) × 10^5 M^–1 | 56.9 | 43.1 | 1.01(±0.03) × 10^13 M^−1s^−1 |
